What was measured:
Assay type in all cases: in vivo
[1] = system: Digitaria sanguinalis; experiment: Pre-emergence herbicidal effect; details: 80 g/ha, visual score after 3 weeks vs untreated controls
Text: (§1) Seeds of monocotyledonous and dicotyledonous weed plants and crop plants are laid out in sandy loam soil in wood-fiber pots and covered with soil. The compounds of the invention, formulated in the form of wettable powders (WP) or as emulsion concentrates (EC), are then applied to the surface of the covering soil as aqueous suspension or emulsion at a water application rate equating to 600 to 800 L/ha with addition of 0.2% wetting agent. After the treatment, the pots are placed in a greenhouse and kept under good growth conditions for the trial plants. The damage to the test plants is scored visually after a test period of 3 weeks by comparison with untreated controls (herbicidal activity in percent (%): 100% activity=the plants have died, 0% activity=like control plants).

[2] = system: Setaria viridis; experiment: Pre-emergence herbicidal effect; details: 80 g/ha, visual score after 3 weeks vs untreated controls
Text: as §1

[3] = system: Echinochloa crus-galli; experiment: Pre-emergence herbicidal effect; details: 80 g/ha, visual score after 3 weeks vs untreated controls
Text: as §1

[4] = system: Alopecurus myosuroides; experiment: Pre-emergence herbicidal effect; details: 80 g/ha, visual score after 3 weeks vs untreated controls
Text: as §1

[5] = system: Avena fatua; experiment: Pre-emergence herbicidal effect; details: 80 g/ha, visual score after 3 weeks vs untreated controls
Text: as §1

[6] = system: Lolium rigidum; experiment: Pre-emergence herbicidal effect; details: 80 g/ha, visual score after 3 weeks vs untreated controls
Text: as §1

[7] = system: Digitaria sanguinalis; experiment: Post-emergence herbicidal effect; details: 80 g/ha, post-emergence at one-leaf stage, visual score after about 3 weeks
Experimental: (§2) Seeds of monocotyledonous and dicotyledonous weed and crop plants are laid out in sandyloam soil in wood-fiber pots, covered with soil and cultivated in a greenhouse under good growth conditions. 2 to 3 weeks after sowing, the test plants are treated at the one-leaf stage. The compounds of the invention, formulated in the form of wettable powders (WP) or as emulsion concentrates (EC), are then sprayed onto the green parts of the plants as aqueous suspension or emulsion at a water application rate equating to 600 to 800 l/ha with addition of 0.2% wetting agent. After the test plants have been left to stand in the greenhouse under optimal growth conditions for about 3 weeks, the action of the preparations is assessed visually in comparison to untreated controls (herbicidal action in percent (%): 100% activity=the plants have died, 0% activity=like control plants).

[8] = system: Setaria viridis; experiment: Post-emergence herbicidal effect; details: 80 g/ha, post-emergence at one-leaf stage, visual score after about 3 weeks
Experimental: as §2

[9] = system: Echinochloa crus-galli; experiment: Post-emergence herbicidal effect; details: 80 g/ha, post-emergence at one-leaf stage, visual score after about 3 weeks
Experimental: as §2

[10] = system: Alopecurus myosuroides; experiment: Post-emergence herbicidal effect; details: 80 g/ha, post-emergence at one-leaf stage, visual score after about 3 weeks
Experimental: as §2

[11] = system: Lolium rigidum; experiment: Post-emergence herbicidal effect; details: 80 g/ha, post-emergence at one-leaf stage, visual score after about 3 weeks
Experimental: as §2

[12] = system: Hordeum murinum; experiment: Post-emergence herbicidal effect; details: 80 g/ha, post-emergence at one-leaf stage, visual score after about 3 weeks
Experimental: as §2

Structure (SMILES): CC#Cc1cc(Br)c(C2=C(O)C3(CCOCC3)NC2=O)c(OC)c1 [Example 1.1.01, 3-[2-Bromo-6-methoxy-4-(prop-1-yn-1-yl)phenyl]-4-hydroxy-8-oxa-1-azaspiro[4.5]dec-3-en-2-one]
- Pre-emergence action DIGSA (herbicidal activity in percent) [1]: 100%
- Pre-emergence action SETVI (herbicidal activity in percent) [2]: 100%
- Pre-emergence action ECHCG (herbicidal activity in percent) [3]: 100%
- Pre-emergence action ALOMY (herbicidal activity in percent) [4]: 90%
- Pre-emergence action AVEFA (herbicidal activity in percent) [5]: 100%
- Pre-emergence action LOLRI (herbicidal activity in percent) [6]: 100%
- Post-emergence action against DIGSA (herbicidal action in percent) [7]: 100%
- Post-emergence action against SETVI (herbicidal action in percent) [8]: 100%
- Post-emergence action against ECHCG (herbicidal action in percent) [9]: 100%
- Post-emergence action against ALOMY (herbicidal action in percent) [10]: 100%
- Post-emergence action against LOLRI (herbicidal action in percent) [11]: 100%
- Post-emergence action against HORMU (herbicidal action in percent) [12]: 100%

Structure (SMILES): CC#Cc1cc(Br)c(C2=C(OC(=O)OC)C3(CCOCC3)NC2=O)c(OC)c1 [Example 1.1.02, 3-[2-Bromo-6-methoxy-4-(prop-1-yn-1-yl)phenyl]-2-oxo-8-oxa-1-azaspiro[4.5]dec-3-en-4-yl methyl carbonate]
- Pre-emergence action DIGSA (herbicidal activity in percent) [1]: 100%
- Pre-emergence action SETVI (herbicidal activity in percent) [2]: 100%
- Pre-emergence action ECHCG (herbicidal activity in percent) [3]: 80%
- Pre-emergence action ALOMY (herbicidal activity in percent) [4]: 90%
- Pre-emergence action AVEFA (herbicidal activity in percent) [5]: 80%
- Pre-emergence action LOLRI (herbicidal activity in percent) [6]: 100%
- Post-emergence action against DIGSA (herbicidal action in percent) [7]: 100%
- Post-emergence action against SETVI (herbicidal action in percent) [8]: 100%
- Post-emergence action against ECHCG (herbicidal action in percent) [9]: 100%
- Post-emergence action against ALOMY (herbicidal action in percent) [10]: 100%
- Post-emergence action against LOLRI (herbicidal action in percent) [11]: 100%

Structure (SMILES): CC#Cc1cc(Br)c(C2=C(OC(=O)OCC)C3(CCOCC3)NC2=O)c(OC)c1 [Example 1.1.03]
- Post-emergence action against DIGSA (herbicidal action in percent) [7]: 100%
- Post-emergence action against SETVI (herbicidal action in percent) [8]: 100%
- Post-emergence action against ECHCG (herbicidal action in percent) [9]: 100%
- Post-emergence action against ALOMY (herbicidal action in percent) [10]: 80%
- Post-emergence action against LOLRI (herbicidal action in percent) [11]: 100%

Structure (SMILES): CC#Cc1cc(Br)c(C2=C(OC(=O)C(C)C)C3(CCOCC3)NC2=O)c(OC)c1 [Example 1.1.04]
- Post-emergence action against DIGSA (herbicidal action in percent) [7]: 100%

Structure (SMILES): CC#Cc1cc(Br)c(C2=C(OC(=O)OCC)C3(CCC4(CC3)OCCO4)NC2=O)c(OC)c1 [Example 1.2.01]
- Pre-emergence action DIGSA (herbicidal activity in percent) [1]: 100%
- Pre-emergence action SETVI (herbicidal activity in percent) [2]: 100%
- Pre-emergence action ECHCG (herbicidal activity in percent) [3]: 100%
- Pre-emergence action ALOMY (herbicidal activity in percent) [4]: 90%
- Pre-emergence action AVEFA (herbicidal activity in percent) [5]: 100%
- Pre-emergence action LOLRI (herbicidal activity in percent) [6]: 100%
- Post-emergence action against SETVI (herbicidal action in percent) [8]: 100%
- Post-emergence action against ECHCG (herbicidal action in percent) [9]: 100%
- Post-emergence action against ALOMY (herbicidal action in percent) [10]: 100%
- Post-emergence action against LOLRI (herbicidal action in percent) [11]: 100%
- Post-emergence action against HORMU (herbicidal action in percent) [12]: 100%

Structure (SMILES): C=CCOC1CCC2(CC1)NC(=O)C(c1c(Br)cc(C#CC)cc1OC)=C2OC(=O)OC (centres unmarked) [Example 1.3.02]
- Pre-emergence action DIGSA (herbicidal activity in percent) [1]: 100%
- Pre-emergence action SETVI (herbicidal activity in percent) [2]: 100%
- Pre-emergence action ECHCG (herbicidal activity in percent) [3]: 100%
- Pre-emergence action ALOMY (herbicidal activity in percent) [4]: 100%
- Pre-emergence action AVEFA (herbicidal activity in percent) [5]: 90%
- Pre-emergence action LOLRI (herbicidal activity in percent) [6]: 100%
- Post-emergence action against DIGSA (herbicidal action in percent) [7]: 100%
- Post-emergence action against SETVI (herbicidal action in percent) [8]: 100%
- Post-emergence action against ECHCG (herbicidal action in percent) [9]: 90%
- Post-emergence action against ALOMY (herbicidal action in percent) [10]: 100%
- Post-emergence action against LOLRI (herbicidal action in percent) [11]: 80%

Structure (SMILES): C=CCOC1CCC2(CC1)NC(=O)C(c1c(Br)cc(C#CC)cc1OC)=C2OC(=O)OCC (centres unmarked) [Example 1.3.03]
- Pre-emergence action DIGSA (herbicidal activity in percent) [1]: 100%
- Pre-emergence action SETVI (herbicidal activity in percent) [2]: 100%
- Pre-emergence action ECHCG (herbicidal activity in percent) [3]: 100%
- Pre-emergence action ALOMY (herbicidal activity in percent) [4]: 100%
- Pre-emergence action AVEFA (herbicidal activity in percent) [5]: 90%
- Pre-emergence action LOLRI (herbicidal activity in percent) [6]: 100%
- Post-emergence action against DIGSA (herbicidal action in percent) [7]: 100%
- Post-emergence action against SETVI (herbicidal action in percent) [8]: 100%
- Post-emergence action against ECHCG (herbicidal action in percent) [9]: 100%
- Post-emergence action against ALOMY (herbicidal action in percent) [10]: 100%
- Post-emergence action against LOLRI (herbicidal action in percent) [11]: 100%

Structure (SMILES): CC#Cc1cc(Br)c(C2=C(O)C3(CCC(OCCOC)CC3)NC2=O)c(OC)c1 (centres unmarked) [Example 1.3.05]
- Pre-emergence action DIGSA (herbicidal activity in percent) [1]: 100%
- Pre-emergence action SETVI (herbicidal activity in percent) [2]: 100%
- Pre-emergence action ECHCG (herbicidal activity in percent) [3]: 100%
- Pre-emergence action ALOMY (herbicidal activity in percent) [4]: 100%
- Pre-emergence action AVEFA (herbicidal activity in percent) [5]: 90%
- Pre-emergence action LOLRI (herbicidal activity in percent) [6]: 100%

Structure (SMILES): CC#Cc1cc(Br)c(C2=C(OC(=O)OC)C3(CCC(OCCOC)CC3)NC2=O)c(OC)c1 (centres unmarked) [Example 1.3.06]
- Pre-emergence action DIGSA (herbicidal activity in percent) [1]: 100%
- Pre-emergence action SETVI (herbicidal activity in percent) [2]: 100%
- Pre-emergence action ECHCG (herbicidal activity in percent) [3]: 100%
- Pre-emergence action ALOMY (herbicidal activity in percent) [4]: 100%
- Pre-emergence action AVEFA (herbicidal activity in percent) [5]: 100%
- Pre-emergence action LOLRI (herbicidal activity in percent) [6]: 100%

Structure (SMILES): CC#Cc1cc(Br)c(C2=C(OC(=O)OCC)C3(CCC(OCCOC)CC3)NC2=O)c(OC)c1 (centres unmarked) [Example 1.3.07]
- Pre-emergence action DIGSA (herbicidal activity in percent) [1]: 100%
- Pre-emergence action SETVI (herbicidal activity in percent) [2]: 100%
- Pre-emergence action ECHCG (herbicidal activity in percent) [3]: 100%
- Pre-emergence action ALOMY (herbicidal activity in percent) [4]: 100%
- Pre-emergence action AVEFA (herbicidal activity in percent) [5]: 100%
- Pre-emergence action LOLRI (herbicidal activity in percent) [6]: 100%

Structure (SMILES): CC#Cc1cc(Br)c(C2=C(OC(C)=O)C3(CCC(OCCOC)CC3)NC2=O)c(OC)c1 (centres unmarked) [Example 1.3.08]
- Pre-emergence action DIGSA (herbicidal activity in percent) [1]: 100%
- Pre-emergence action SETVI (herbicidal activity in percent) [2]: 100%
- Pre-emergence action ECHCG (herbicidal activity in percent) [3]: 100%
- Pre-emergence action ALOMY (herbicidal activity in percent) [4]: 100%
- Pre-emergence action AVEFA (herbicidal activity in percent) [5]: 90%
- Pre-emergence action LOLRI (herbicidal activity in percent) [6]: 100%

Structure (SMILES): CC#Cc1cc(Br)c(C2=C(O)C3(CCC(OC(C)C)CC3)NC2=O)c(OC)c1 (centres unmarked) [Example 1.3.09]
- Pre-emergence action DIGSA (herbicidal activity in percent) [1]: 100%
- Pre-emergence action SETVI (herbicidal activity in percent) [2]: 100%
- Pre-emergence action ECHCG (herbicidal activity in percent) [3]: 90%
- Pre-emergence action ALOMY (herbicidal activity in percent) [4]: 100%
- Pre-emergence action AVEFA (herbicidal activity in percent) [5]: 100%
- Pre-emergence action LOLRI (herbicidal activity in percent) [6]: 100%

Structure (SMILES): CC#Cc1cc(Br)c(C2=C(OC(=O)OC)C3(CCC(OC(C)C)CC3)NC2=O)c(OC)c1 (centres unmarked) [Example 1.3.11]
- Pre-emergence action DIGSA (herbicidal activity in percent) [1]: 100%
- Pre-emergence action SETVI (herbicidal activity in percent) [2]: 100%
- Pre-emergence action ECHCG (herbicidal activity in percent) [3]: 100%
- Pre-emergence action ALOMY (herbicidal activity in percent) [4]: 100%
- Pre-emergence action AVEFA (herbicidal activity in percent) [5]: 90%
- Pre-emergence action LOLRI (herbicidal activity in percent) [6]: 100%

Structure (SMILES): CC#Cc1cc(Br)c(C2=C(OC(=O)OCC)C3(CCC(OC(C)C)CC3)NC2=O)c(OC)c1 (centres unmarked) [Example 1.3.12]
- Pre-emergence action DIGSA (herbicidal activity in percent) [1]: 100%
- Pre-emergence action SETVI (herbicidal activity in percent) [2]: 100%
- Pre-emergence action ECHCG (herbicidal activity in percent) [3]: 100%
- Pre-emergence action ALOMY (herbicidal activity in percent) [4]: 100%
- Pre-emergence action AVEFA (herbicidal activity in percent) [5]: 80%
- Pre-emergence action LOLRI (herbicidal activity in percent) [6]: 100%

From patent US20220056040A1, “NOVEL 3-(2-BROMO-4-ALKYNYL-6-ALKOXYPHENYL)-3-PYRROLIN-2-ONES AND THEIR USE AS HERBICIDES” (Bayer Aktiengesellschaft, priority 2019, published 2022)
